Assay results from patent US4221907A, “Substituted O-α-D and O-β-D-multi-galactopyranosyl and glucopyranosyl 1→4 and 1→6 galactopyranosyl 1→6 α-D-glucopyranoses” (American Cyanamid Company, priority 1979, dated 1980).
Counter-ions that a name gives are not always drawn.

Columns and labels:
human C1 = human C1 (Homo sapiens, UniProt P09871); test: Test Code 026 (C1 inhibitor): activated human C1 destroys fluid phase human C2 in presence of C4; assay type: biochemical; settings: activity in wells, twofold serial dilution; higher well number indicates higher activity
Chain of human C1 (P09871 16-688): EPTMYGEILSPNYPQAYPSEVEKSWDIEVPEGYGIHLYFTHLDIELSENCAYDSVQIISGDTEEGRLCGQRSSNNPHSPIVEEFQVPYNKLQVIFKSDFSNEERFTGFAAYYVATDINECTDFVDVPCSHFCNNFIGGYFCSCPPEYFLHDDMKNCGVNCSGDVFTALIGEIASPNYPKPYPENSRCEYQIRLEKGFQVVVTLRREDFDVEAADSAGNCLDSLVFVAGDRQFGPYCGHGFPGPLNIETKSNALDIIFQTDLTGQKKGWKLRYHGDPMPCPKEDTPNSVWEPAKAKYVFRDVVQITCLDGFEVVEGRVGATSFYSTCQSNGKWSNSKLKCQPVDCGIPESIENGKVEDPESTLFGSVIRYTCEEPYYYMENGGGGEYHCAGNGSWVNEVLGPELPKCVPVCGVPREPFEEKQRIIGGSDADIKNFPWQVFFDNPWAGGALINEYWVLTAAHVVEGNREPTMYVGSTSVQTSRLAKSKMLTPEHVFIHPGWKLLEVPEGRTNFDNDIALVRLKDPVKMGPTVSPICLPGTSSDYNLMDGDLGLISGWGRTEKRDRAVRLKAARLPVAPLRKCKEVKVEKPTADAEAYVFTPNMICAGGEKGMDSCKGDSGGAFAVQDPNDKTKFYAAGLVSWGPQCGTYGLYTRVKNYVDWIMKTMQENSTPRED
Chain of human C1 (P00736 18-705 partner): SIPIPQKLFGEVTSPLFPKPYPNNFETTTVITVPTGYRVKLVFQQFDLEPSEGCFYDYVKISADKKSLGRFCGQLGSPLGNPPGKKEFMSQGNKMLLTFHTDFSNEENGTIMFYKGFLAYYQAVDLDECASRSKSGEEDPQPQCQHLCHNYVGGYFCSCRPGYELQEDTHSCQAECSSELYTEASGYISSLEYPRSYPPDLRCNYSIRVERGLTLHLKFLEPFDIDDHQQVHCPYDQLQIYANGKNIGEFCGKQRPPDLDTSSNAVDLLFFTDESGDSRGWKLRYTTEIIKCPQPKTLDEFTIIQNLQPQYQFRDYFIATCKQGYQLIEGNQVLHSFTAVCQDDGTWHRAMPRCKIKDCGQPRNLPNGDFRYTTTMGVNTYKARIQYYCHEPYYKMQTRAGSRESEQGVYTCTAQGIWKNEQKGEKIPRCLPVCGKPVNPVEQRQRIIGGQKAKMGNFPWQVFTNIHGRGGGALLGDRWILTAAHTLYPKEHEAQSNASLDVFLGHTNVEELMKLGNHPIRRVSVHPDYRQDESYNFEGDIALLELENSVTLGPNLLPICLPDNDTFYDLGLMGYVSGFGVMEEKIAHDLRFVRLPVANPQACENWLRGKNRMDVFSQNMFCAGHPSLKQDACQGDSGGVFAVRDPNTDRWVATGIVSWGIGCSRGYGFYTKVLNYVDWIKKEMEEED
Chain of human C1 (P02745 23-245 partner): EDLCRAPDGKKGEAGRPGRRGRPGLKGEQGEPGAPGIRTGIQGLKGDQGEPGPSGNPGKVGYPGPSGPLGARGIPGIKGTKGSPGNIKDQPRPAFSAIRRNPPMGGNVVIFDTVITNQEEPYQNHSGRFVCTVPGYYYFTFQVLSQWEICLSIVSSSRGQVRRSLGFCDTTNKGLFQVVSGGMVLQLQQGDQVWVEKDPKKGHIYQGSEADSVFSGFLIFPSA
Chain of human C1 (P02746 28-253 partner): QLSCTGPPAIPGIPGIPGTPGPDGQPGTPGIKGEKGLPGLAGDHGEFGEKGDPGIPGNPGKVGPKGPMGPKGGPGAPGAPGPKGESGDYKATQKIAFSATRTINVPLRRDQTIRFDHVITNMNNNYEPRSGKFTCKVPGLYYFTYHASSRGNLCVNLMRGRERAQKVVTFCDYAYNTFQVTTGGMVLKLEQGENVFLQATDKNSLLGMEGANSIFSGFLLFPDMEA
Chain of human C1 (P02747 29-245 partner): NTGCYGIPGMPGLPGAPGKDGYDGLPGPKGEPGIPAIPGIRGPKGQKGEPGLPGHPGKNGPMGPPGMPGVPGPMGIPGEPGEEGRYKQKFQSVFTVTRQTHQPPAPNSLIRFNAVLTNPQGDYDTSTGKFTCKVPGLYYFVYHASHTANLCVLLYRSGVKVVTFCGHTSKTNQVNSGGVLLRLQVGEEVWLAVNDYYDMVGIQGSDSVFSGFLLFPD
Description: (§1) An active inhibitor protects C2 from C1 and C4; (ii) Test Code 035 (C3-C9 inhibitor)--This test determines the ability of the late components of human complement (C3-C9) to lyse EAC 142 in the presence of appropriate dilutions of the test compound. An active inhibitor protects EAC 142 from lysis by human C3-C9; (iii) Test Code 036 (C-Shunt inhibitor)--In this test human erythrocytes rendered fragile are lysed in autologous serum via the shunt pathway activated by cobra venom factor in the presence of appropriate dilutions of the test compound. Inhibition of the shunt pathway results in failure of lysis; (iv) Forssman Vasculitis Test--Here, the well known complement dependent lesion, Forssman vasculitis, is produced in guinea pigs by intradermal injection of rabbit anti-Forssman antiserum. The lesion is measured in terms of diameter, edema and hemorrhage and the extent to which a combined index of these is inhibited by prior intraperitoneal injection of the test compound at 200 mg/kg is then reported, unless otherwise stated; (v) Forssman Shock Test--Lethal shock is produced in guinea pigs by an i.v. injection of anti-Forssman antiserum and the harmonic mean death time of treated guinea pigs is compared with that of the simultaneous controls; (vi) Complement Level Reduction Test--In this test, the above dosed guinea pigs, or others are bled for serum and the complmenet level is determined in undiluted serum by the capillary tube method of U.S. Pat. No. 3,876,376 and compared to undosed control guinea pigs; (vii) Cap 50 Test--Here, appropriate amounts of the test compound are added to a pool of guinea pig serum in vitro, after which the undiluted serum capillary tube assay referred to above is run. The concentration of compound inhibiting 50% is reported.
(§2) **Activity in wells, a serial dilution assay; higher well number indicate
(§3) higher activity. The serial dilutions are twofold-

whole complement = test: In vivo activity (Guinea Pig): serum whole complement by capillary tube assay after dosing; settings: Intraperitoneal, 200 mg/kg
human complement (C3-C9) = test: Test Code 035 (C3-C9 inhibitor): lysis of EAC 142 by late components of human complement; assay type: biochemical; settings: activity in wells, twofold serial dilution; higher well number indicates higher activity
Description: as §1, §2, §3

shunt pathway = test: Test Code 036 (C-Shunt inhibitor): lysis of human erythrocytes in autologous serum via shunt pathway activated by cobra venom factor; assay type: biochemical; settings: activity in wells, twofold serial dilution; higher well number indicates higher activity
Description: as §1, §2, §3

Row | Structure (SMILES) | C1 026 Wells (human C1) | In vivo Activity (Guinea Pig) % Inhibition (whole complement; 30 min) [%] | In vivo Activity (Guinea Pig) % Inhibition (whole complement; 60 min) [%] | In vivo Activity (Guinea Pig) % Inhibition (whole complement; 120 min) [%] | C-Late 035 Wells (human complement (C3-C9)) | Shunt Inhibition 036 Wells (shunt pathway)
1 | O=S(=O)(O)OC[C@H]1O[C@H](OC[C@H]2O[C@H](OS(=O)(=O)O)[C@H](OS(=O)(=O)O)[C@@H](OS(=O)(=O)O)[C@@H]2OS(=O)(=O)O)[C@H](OS(=O)(=O)O)[C@@H](OS(=O)(=O)O)[C@H]1OS(=O)(=O)O | +8 Wells |  |  |  |  | 
2 | O=S(=O)(O)OC[C@H]1O[C@@H](OC[C@H]2O[C@H](OC[C@H]3O[C@H](OS(=O)(=O)O)[C@H](OS(=O)(=O)O)[C@@H](OS(=O)(=O)O)[C@@H]3OS(=O)(=O)O)[C@H](OS(=O)(=O)O)[C@@H](OS(=O)(=O)O)[C@H]2OS(=O)(=O)O)[C@H](OS(=O)(=O)O)[C@@H](OS(=O)(=O)O)[C@H]1OS(=O)(=O)O [drawing 6, O-β-D-galactopyranosyl(1→6)-O-α-D-galactopyranosyl(1→6)-α-D-glucopyranose [gal 1β,6 gal 1α,6 glc] undecakis (H-sulfate), undecasalt with trimethylamine] | +9 Wells |  |  |  |  | 
3 | O=S(=O)(O)OC[C@H]1O[C@@H](OC[C@H]2O[C@H](OC[C@H]3O[C@H](OS(=O)(=O)O)[C@H](OS(=O)(=O)O)[C@@H](OS(=O)(=O)O)[C@@H]3OS(=O)(=O)O)[C@H](OS(=O)(=O)O)[C@@H](OS(=O)(=O)O)[C@H]2OS(=O)(=O)O)[C@H](OS(=O)(=O)O)[C@@H](OS(=O)(=O)O)[C@H]1OS(=O)(=O)O [drawing 7, O-β-D-galactopyranosyl(1→6)-O-α-D-galactopyranosyl(1→6)-α-D-glucopyranose [gal 1β,6 gal 1α,6 glc] undecakis (H-sulfate), undecasodium salt] | +9 Wells | -30 | -17 | -56 |  | 
4 | O=S(=O)(O)OC[C@H]1O[C@H](OC[C@H]2O[C@@H](OC[C@H]3O[C@H](OC[C@H]4O[C@H](OS(=O)(=O)O)[C@H](OS(=O)(=O)O)[C@@H](OS(=O)(=O)O)[C@@H]4OS(=O)(=O)O)[C@H](OS(=O)(=O)O)[C@@H](OS(=O)(=O)O)[C@H]3OS(=O)(=O)O)[C@H](OS(=O)(=O)O)[C@@H](OS(=O)(=O)O)[C@@H]2OS(=O)(=O)O)[C@H](OS(=O)(=O)O)[C@@H](OS(=O)(=O)O)[C@H]1OS(=O)(=O)O [drawing 8, O-α-D-galactopyranosyl(1→6)-O-β-D-glucopyranosyl(1→6)-O-α-D-galactopyranosyl(1→6)-α-D-glucopyranose [gal 1α,6 glc 1β,6 gal 1α,6 glc] tetradecakis (H-sulfate), tetradecasalt with trimethylamine] | +9 Wells |  |  |  | +1 Wells | +5 Wells
5 | O=S(=O)(O)OC[C@H]1O[C@@H](OC[C@H]2O[C@H](OC[C@H]3OC(OS(=O)(=O)O)[C@H](OS(=O)(=O)O)[C@@H](OS(=O)(=O)O)[C@@H]3OS(=O)(=O)O)[C@H](OS(=O)(=O)O)[C@@H](OS(=O)(=O)O)[C@H]2OS(=O)(=O)O)[C@H](OS(=O)(=O)O)[C@@H](OS(=O)(=O)O)[C@@H]1O[C@H]1O[C@H](COS(=O)(=O)O)[C@@H](OS(=O)(=O)O)[C@H](OS(=O)(=O)O)[C@H]1OS(=O)(=O)O (stereo partly drawn) [drawing 10, O-α-D-glucopyranosyl(1→4)-O-β-D-glucopyranosyl(1→6)-O-α-D-galactopyranosyl(1→6)-D-glucopyranose [glc 1α,4 glc 1β,6 gal 1α,6 glc] tetradecakis (H-sulfate), tetradecasalt with trimethylamine] | +9 Wells |  |  |  | +1 Wells | +5 Wells
6 | O=S(=O)(O)OC[C@H]1O[C@@H](OC[C@H]2O[C@H](OC[C@H]3O[C@H](OS(=O)(=O)O)[C@H](OS(=O)(=O)O)[C@@H](OS(=O)(=O)O)[C@@H]3OS(=O)(=O)O)[C@H](OS(=O)(=O)O)[C@@H](OS(=O)(=O)O)[C@H]2OS(=O)(=O)O)[C@H](OS(=O)(=O)O)[C@@H](OS(=O)(=O)O)[C@@H]1O[C@@H]1O[C@H](COS(=O)(=O)O)[C@@H](OS(=O)(=O)O)[C@H](OS(=O)(=O)O)[C@H]1OS(=O)(=O)O [drawing 12, O-β-D-glucopyranosyl(1→4)-O-β-D-glucopyranosyl(1→6)-O-α-D-galactopyrranosyl(1→6)-α-D-glucopyranose [glc 1β,4 glc 1β,6 gal 1α,6 glc] tetradecakis (H-sulfate), tetradecasalt with trimethylamine] | +9 Wells |  |  |  |  | +4 Wells
7 | O=S(=O)(O)OC[C@H]1O[C@@H](OC[C@H]2O[C@H](OC[C@H]3O[C@H](OS(=O)(=O)O)[C@H](OS(=O)(=O)O)[C@@H](OS(=O)(=O)O)[C@@H]3OS(=O)(=O)O)[C@H](OS(=O)(=O)O)[C@@H](OS(=O)(=O)O)[C@H]2OS(=O)(=O)O)[C@H](OS(=O)(=O)O)[C@@H](OS(=O)(=O)O)[C@@H]1O[C@@H]1O[C@H](COS(=O)(=O)O)[C@@H](OS(=O)(=O)O)[C@H](OS(=O)(=O)O)[C@H]1OS(=O)(=O)O [drawing 13, O-β-D-glucopyranosyl(1→4)-O-β-D-glucopyranosyl(1→6)-O-α-D-galactopyranosyl(1→6)-α-D-glucopyranose [glc 1β,4 glc 1β,6 gal 1α,6 glc] tetradecakis (H-sulfate), tetradecasodium salt] | +9 Wells | -25 | -34 | -60 |  | 
8 | O=S(=O)(O)OC[C@H]1O[C@@H](OC[C@H]2O[C@H](OC[C@H]3O[C@H](OS(=O)(=O)O)[C@H](OS(=O)(=O)O)[C@@H](OS(=O)(=O)O)[C@@H]3OS(=O)(=O)O)[C@H](OS(=O)(=O)O)[C@@H](OS(=O)(=O)O)[C@H]2OS(=O)(=O)O)[C@H](OS(=O)(=O)O)[C@@H](OS(=O)(=O)O)[C@@H]1O[C@H]1O[C@H](COS(=O)(=O)O)[C@@H](O[C@H]2O[C@H](COS(=O)(=O)O)[C@@H](OS(=O)(=O)O)[C@H](OS(=O)(=O)O)[C@H]2OS(=O)(=O)O)[C@H](OS(=O)(=O)O)[C@H]1OS(=O)(=O)O [drawing 14, O-α-D-glucopyranosyl(1→4)-O-α-D-glucopyranosyl(1→4)-O-β-D-glucopyranosyl(1→6)-O-α-D-galactopyranosyl(1→6)-α-D-glucopyranose [(glc 1α,4)2 glc 1β,6 gal 1α,6 glc] heptadecakis(H-sulfate), heptadecasalt with trimethylamine] | +9 Wells |  |  |  | +1 Wells | 
9 | O=S(=O)(O)OC[C@H]1O[C@@H](OC[C@H]2O[C@H](OC[C@H]3O[C@H](OS(=O)(=O)O)[C@H](OS(=O)(=O)O)[C@@H](OS(=O)(=O)O)[C@@H]3OS(=O)(=O)O)[C@H](OS(=O)(=O)O)[C@@H](OS(=O)(=O)O)[C@H]2OS(=O)(=O)O)[C@H](OS(=O)(=O)O)[C@@H](OS(=O)(=O)O)[C@@H]1O[C@H]1O[C@H](COS(=O)(=O)O)[C@@H](O[C@H]2O[C@H](COS(=O)(=O)O)[C@@H](OS(=O)(=O)O)[C@H](OS(=O)(=O)O)[C@H]2OS(=O)(=O)O)[C@H](OS(=O)(=O)O)[C@H]1OS(=O)(=O)O [drawing 15, O-α-D-glucopyranosyl(1→4)-O-α-D-glucopyranosyl(1→4)-O-β-D-glucopyranosyl(1→6)-O-α-D-galactopyranosyl(1→6)-α-D-glucopyranose [(glc 1α,4)2 glc 1β,6 gal 1α,6 glc] heptadecakis(H-sulfate), heptadecasodium salt] | +9 Wells |  |  |  | +2 Wells | +6 Wells
10 | O=S(=O)(O)OC[C@H]1O[C@@H](OC[C@H]2O[C@H](OC[C@H]3OC(OS(=O)(=O)O)[C@H](OS(=O)(=O)O)[C@@H](OS(=O)(=O)O)[C@@H]3OS(=O)(=O)O)[C@H](OS(=O)(=O)O)[C@@H](OS(=O)(=O)O)[C@H]2OS(=O)(=O)O)[C@H](OS(=O)(=O)O)[C@@H](OS(=O)(=O)O)[C@@H]1O[C@H]1O[C@H](COS(=O)(=O)O)[C@@H](O[C@H]2O[C@H](COS(=O)(=O)O)[C@@H](O[C@H]3O[C@H](COS(=O)(=O)O)[C@@H](O[C@H]4O[C@H](COS(=O)(=O)O)[C@@H](O[C@H]5O[C@H](COS(=O)(=O)O)[C@@H](O[C@H]6O[C@H](COS(=O)(=O)O)[C@@H](OS(=O)(=O)O)[C@H](OS(=O)(=O)O)[C@H]6OS(=O)(=O)O)[C@H](OS(=O)(=O)O)[C@H]5OS(=O)(=O)O)[C@H](OS(=O)(=O)O)[C@H]4OS(=O)(=O)O)[C@H](OS(=O)(=O)O)[C@H]3OS(=O)(=O)O)[C@H](OS(=O)(=O)O)[C@H]2OS(=O)(=O)O)[C@H](OS(=O)(=O)O)[C@H]1OS(=O)(=O)O (stereo partly drawn) [drawing 16, O-α-D-glucopyranosyl(1→4)-O-α-D-glucopyranosyl(1→4)-O-α-D-glucopyranosyl(1→4)-O-α-D-glucopyranosyl(1→4)-O-α-D-glucopyranosyl(1→4)-O-α-D-glucopyranosyl(1→4)-O-β-D-glucopyranosyl(1→6)-O-α-D-galactopyranosyl(1→6)-D-glucopyranose [(glc 1α,4)6 glc 1β,6 gal 1α,6 glc] nonacosakis (H-sulfate), non-acosasalt with trimethylamine] | +10 Wells |  |  |  | +1 Wells | +5 Wells
